The numbers were not newly measured in patent US6627614B1, “Sequential therapy comprising a 20(S)-camptothecin and an anthracycline” (priority 2002, dated 2003), which cites them from elsewhere.

Molecules are shown by their SMILES.

The conditions of data set [1]: administered intravenously, patients.
Data set [2] deals with various types of cancer, including primary cancer and metastasis. The following applies: patients, oral.
Experiment in data set [3]: not given
The source holds these as a separate data set.

The subject of data set [4] is nontumorigenic and tumorigenic human cells.
The test system of data set [5] is human colon cancer xenografts.

On to `CC[C@@](O)(C(=O)[O-])c1cc2n(c(=O)c1CO)Cc1cc3ccccc3nc1-2.[Na+]` [20(S)-camptothecin Na^+, sodium salt of 20(S)-camptothecin], for which, in data set [1], the “potency in clinical trials” value is “low potency” and the “toxicity in clinical trials” value is “high toxicity”.
For `COc1cccc2c1C(=O)c1c(O)c3c(c(O)c1C2=O)C[C@@](O)([C@@H](O)CO)C[C@@H]3O[C@H]1C[C@H](N)[C@H](O)[C@H](C)O1` [doxorubicinol], the “clearance in patients with impaired hepatic function” value is reported as “reduced”.
Consider `CC[C@@]1(O)C(=O)OCc2c1cc1n(c2=O)Cc2cc3c([N+](=O)[O-])cccc3nc2-1` [9NC, 9-nitrocamptothecin], for which, in the data set on human tumor xenografts (human tumor xenograft models), the “activity against human tumor xenograft models” value was “high activity”. For the same compound, the “growth of human tumor xenografts” value with human tumor xenografts (immunodeficient nude mice) is “inhibited the growth”. In addition, the “regression of established human tumors” value with human tumor xenografts (tumors established as xenografts in nude mice) was “induced regression”. Moreover, in data set [2], the “tumors known to regress after exposure” value is “breast carcinoma, ovarian carcinoma, cholangiocarcinoma, monomyelocytic leukemia, and pancreatic carcinoma”.
`COc1cccc2c1C(=O)c1c(O)c3c(c(O)c1C2=O)C[C@@](O)(C(=O)CO)C[C@@H]3OC1CC(N)C(O)C(C)O1` (stereo partly shown) [doxorubicin]: the “clearance in patients with impaired hepatic function” value is on record as “reduced”. Moreover, for the setting “human, in vivo”, the “crossing of the blood brain barrier” value is “does not cross”. The “dose appearing in the bile” value (in 5 days) is “Approximately 40%”. For the same compound, the “systemic clearance in obese women” value (obese women with ideal body weight greater than 130%) was “significantly reduced”. Besides, for the setting “patients, intravenous injection”, the initial distributive half-life result is “approximately 5.0 minutes”. In data set [3] (children, long term follow-up), the “children with subclinical cardiac dysfunction” value is no more than 40%. Besides, in data set [3] (patients), the “additional toxicity manifested by” value was “neutropenia, thrombocytopenia, anemia, confusion and hematuria”; the “total cumulative dose at which irreversible cardiac toxicity may occur” value is roughly 550 mg/M^2.
`CC[C@@]1(O)C(=O)OCc2c1cc1n(c2=O)Cc2cc3ccccc3nc2-1` [20(S)-camptothecin]: the “effect on nontumorigenic cells” value in data set [4] (nontumorigenic human cells in vitro) was “cytostatic”. Further, the “effect on tumorigenic cells” value in data set [4] (tumorigenic human cells in vitro) is on record as “cytotoxic”.
For `CC[C@@]1(O)C(=O)OCc2c1cc1n(c2=O)Cc2cc3cc4c(cc3nc2-1)OCO4` [10,11 MD, 10,11-Methylendioxy-20(S)-Camptothecin], in data set [5], the “anticancer activity against human colon cancer xenografts” value was “high anticancer activity”.
Turning to `CC[C@@]1(O)C(=O)OCc2c1cc1n(c2=O)Cc2cc3c(N)cccc3nc2-1` [9AC, 9-Amino-20(S)-Camptothecin], the “anticancer activity against human colon cancer xenografts” value in data set [5] is given as “high anticancer activity”.
